Drawing on ChEMBL document CHEMBL3507680, “University of Dundee, Gates Library screen for HepG2 cell viability”, this text covers cytotoxicity for 105 compounds.

The nature of the data set: Human HepG2 cell viability assay in 384 well format. The format is toxicity, cell-based. Further details: dose 125 nL, time 70.5 hour; cytotoxicity at 70.5 h: concentration not given beside the values. To be noted: HepG2 cells, read-out: Inhibition.
Take `Cc1sc(N)nc1-c1ccc(Cl)cc1`: the cytotoxicity at 70.5 h was 15.4%. For `CSCC(C)(O)CNc1cccc(F)c1C(C)=O` (stereo not given), the cytotoxicity at 70.5 h was -5.74%.

Regarding `CC(C)C(C)(O)CNc1cccc(F)c1C#N` (stereo not given), the cytotoxicity at 70.5 h is -7.64%. For `COCCCn1ccc(NC(=O)NCCCn2ccnc2)n1` the value was -18.9%; for `CCCNC(=O)Nc1ccn(CCCOC)n1`, 9.71%.

On to `CC(C)COC(C)C(=O)N1CCC(C)CC1` (stereo not given), for which the cytotoxicity at 70.5 h was 3.43%. For the compound `COc1ccccc1C(C)(C)NCc1ccco1`, the cytotoxicity at 70.5 h was -19.1%. In the case of `CC(C)(C)CC(=O)Nc1ccc(S(C)(=O)=O)nc1` it was -6.59%; in that of `CC1CCCCN1S(=O)(=O)NCc1cccnc1OC1CCCC1` (stereo not given), -2.43%; in that of `O=C(Nc1ccc(Cn2cccn2)cc1)N1CCC(CO)CC1`, -5.76%. In the case of `O=C(Nc1ccc(Cn2cccn2)cc1)N1CCC2(CC1)OCCO2` it was 22.5%. Consider `O=C(C[S+]([O-])Cc1cccc(Cl)c1)NC1CCCC1` (stereo not given), for which the cytotoxicity at 70.5 h is -3.67%. As for `Cc1noc(OCCOc2cccc(C#N)c2)n1`, the cytotoxicity at 70.5 h was -3.56%. In the case of `CCN1CCN(c2ccc(C(=O)NC(C)c3ccncc3)cc2)CC1` (stereo not given) it was 6.23%; in that of `O=C(NCCCO)Nc1cccc(C[S+]([O-])c2ccccc2)c1` (stereo not given), -6.37%; in that of `CS(=O)(=O)NCC1(c2ccccc2Br)CC1`, -5.81%. For `CCN1CCN(c2ccc(C(=O)NC(C)CCOC)cc2)CC1` (stereo not given) the value was 23.2%. In the case of `CN(C)S(=O)(=O)NCC1(c2ccccc2Br)CC1` it was 13.4%; in that of `COc1ccc(-c2ccc(C(=O)NS(C)(=O)=O)c(F)c2)c(F)c1`, -6.13%; in that of `Cc1nn(C)c(C)c1NC(=O)CNc1cccc(CC(F)(F)F)c1`, -1.15%. With `Cc1ccc(C(F)(F)F)cc1NCC(=O)Nc1c(C)nn(C)c1C`, the cytotoxicity at 70.5 h turned out to be 11.3%. Regarding `Cn1c(=O)oc2ccc(Nc3ncc(C#N)cc3Cl)cc21`, the cytotoxicity at 70.5 h was -2.37%. For `NC(=O)CN1CCCC1c1ccccc1Br` (stereo not given) the value was 7.42%; for `CNC(=O)CCN1CCCC1c1ccccc1Br` (stereo not given), 28%; for `Cn1c(=O)oc2cc(Nc3ncc(C#N)cc3Cl)ccc21`, -4.36%. For `CC1(C)CN(CC(F)(F)F)CCN1CC(N)=O` the value was -3.8%; for `CN(Cc1cncs1)C1CCN(C(=O)OC(C)(C)C)CC1`, -8.3%.

In the case of `Cc1cc(N2CCC(NC(=O)CCC3CCCO3)CC2)nc(C)n1` (stereo not given), the cytotoxicity at 70.5 h is -5.62%. With `Cc1nc(C)c(CN(C)C2CCN(C(=O)OC(C)(C)C)CC2)s1`, the cytotoxicity at 70.5 h is -7.19%. In the case of `CC(C(=O)NCCc1cccs1)N1CCC(n2ccnc2)CC1` (stereo not given), the cytotoxicity at 70.5 h was -1.16%. In the case of `COCC(NC(=O)c1ccc(O)nc1)c1ccc(C)o1` (stereo not given) it was 0.572%. In the case of `CN(CCOCC1CC1)C(=O)Cn1cccc(C(F)(F)F)c1=O` it was -1.06%; in that of `CCCN(CCC)S(=O)(=O)c1cc(NC(C)=O)ccc1C`, 4.44%; in that of `Cc1nn(C)c(C)c1CC(=O)NCc1ccnc(OC2CCCC2)c1`, -5.31%. In the case of `COc1ccnc(N(C)Cc2ccco2)n1` it was 10.4%; in that of `CC(C)(C)OCCN(Cc1cccc(O)c1)C1CCC(O)CC1` (stereo not given), -3.74%. In the case of `CN(C(=O)CN(Cc1cccc(O)c1)C1CCC(O)CC1)C1CC1` (stereo not given), the cytotoxicity at 70.5 h was -6.65%.

Regarding `CN1CCN(CCCN(C)S(=O)(=O)CC2CCCCC2)CC1`, the cytotoxicity at 70.5 h is -3.5%. For the compound `C[S+]([O-])c1ccc(NC(=O)CC2=CCCCC2)cc1` (stereo not given), the cytotoxicity at 70.5 h is -3.55%. For the compound `COc1ccc(CN2CCNC(=O)CC2)cc1SC(F)(F)F`, the cytotoxicity at 70.5 h came out at 1.64%. Regarding `CCOCC(=O)NCC(C)(O)c1cc(C)oc1C` (stereo not given), the cytotoxicity at 70.5 h was -0.44%. In the case of `CC(Cn1ccnc1)NC(=O)NCCN1CCc2ccccc2C1` (stereo not given) it was 0.814%; in that of `CC(Cn1cccn1)NC(=O)NCCCN1CCCCCC1=O` (stereo not given), 0.306%. As for `CCOC1CCN(CCc2nc(-c3cccc(Cl)c3)no2)CC1`, the cytotoxicity at 70.5 h amounted to 16.1%.

Regarding `COCC(O)CN(C)C(=O)c1cccc(-c2csc(C)n2)c1` (stereo not given), the cytotoxicity at 70.5 h worked out at 1.21%. On to `Cc1cc(C(C)(O)CNC(=O)c2ccc(Br)o2)c(C)o1` (stereo not given), for which the cytotoxicity at 70.5 h is -0.275%. In the case of `CCOc1ccc(CN2C(=O)CC(CC)(CC)C2=O)nc1` it was 0.923%; in that of `Cc1cc(C(C)(O)CNC(=O)CCOCC(C)C)c(C)o1` (stereo not given), 0.738%; in that of `CCCN(C)S(=O)(=O)NC(=O)c1ccc(CC)o1`, 0.645%. For `CC(Cn1cccn1)NC(=O)NCCN1CCc2ccccc2C1` (stereo not given) the value was 0.199%.

As for `CCc1cc(CNC(=O)N2Cc3ccccc3N(C)CC2C)[nH]n1` (stereo not given), the cytotoxicity at 70.5 h is -0.192%.

With `CC(C(=O)NC(C)(C)C)N1CCC(C(=O)Nc2cnccn2)CC1` (stereo not given), the cytotoxicity at 70.5 h is -8.75%. As for `Cc1cccnc1NC(=O)C1CCN(C(C)C(=O)NC(C)(C)C)CC1` (stereo not given), the cytotoxicity at 70.5 h is -10.6%.

Take `Cc1noc(C)c1CN(C)C(=O)NC(C)c1cccs1` (stereo not given): the cytotoxicity at 70.5 h is 7.59%. In the case of `CCc1ccc(-c2nn3c(nc2=O)-c2ccccc2NC3C(=O)O)cc1` (stereo not given) it was -10.4%. In the case of `COc1cc(C)c(C(C)Nc2ncc(C(N)=O)cc2Cl)cc1OC` (stereo not given) it was -12.8%; in that of `O=C(CSc1nnc[nH]1)NCc1cccs1`, -2.74%; in that of `Cc1ccc(NC(=O)CS(=O)(=O)NC2CCC(C)CC2)nc1` (stereo not given), -2.47%. For `CC1CCC(NS(=O)(=O)CC(=O)Nc2ccc(N3CCCC3)cn2)CC1` (stereo not given) the value was -5.53%; for `CC(CNS(=O)(=O)CCCC#N)c1ccsc1` (stereo not given), -3.18%; for `Cc1csc(CN(C)C(=O)Nc2cc(F)cc(N3CCCC3)c2)n1`, -11.9%.

Consider `COc1ccc(Br)cc1CCC(=O)N1CCC(O)CC1`, for which the cytotoxicity at 70.5 h is -4.79%. In the case of `CC1CCC(NS(=O)(=O)CC(=O)Nc2ccccc2N2CCCC2)CC1` (stereo not given) it was -1.66%. In the case of `Cc1cc(NC(=O)Cc2ccccc2O)c[nH]c1=O` it was -13.3%; in that of `Cc1cc(NC(=O)Cc2ccccc2O)cnc1N1CCCCC1`, -12.3%. For `COc1c(CNC2(c3ccc(Cl)cc3)CCC2)c(C)nn1C` the value was 5.64%; for `CCOCCC(=O)N(C)c1ccc(F)c(Cl)c1`, -7.99%.

As for `COc1ccc(Br)cc1CC(=O)N1CCCC1`, the cytotoxicity at 70.5 h was -5.85%. Consider `Cc1cccc(C(C)CNS(=O)(=O)CCCC#N)c1` (stereo not given), for which the cytotoxicity at 70.5 h is -8.11%. In the case of `Cc1[nH]ncc1C(=O)N(CC(C)C)CC(O)c1ccc(F)cc1` (stereo not given) it was 14.2%. For `COc1cccc(COCC(=O)NC(C)c2nnc3n2CCC3)c1` (stereo not given), the cytotoxicity at 70.5 h was 1.6%. In the case of `CCN(C(=O)c1ccc2c(c1)OCO2)C1CC(=O)NC1=O` (stereo not given) it was -6.4%. In the case of `O=C(Nc1ccccc1F)C1CSCN1C(=O)CCc1ccco1` (stereo not given) it was -8.52%. Regarding `COc1cc(-n2cccc2)c(Cl)cc1C(=O)NS(C)(=O)=O`, the cytotoxicity at 70.5 h is 6%. In the case of `CS(=O)(=O)NCCNC(=O)Cc1ccc(Br)s1` it was -3.17%; in that of `c1csc(N2CCN(c3nccn4cnnc34)CC2)n1`, -3.57%. In the case of `CC(C)N(C(=O)CCc1ccco1)C1CCOCC1`, the cytotoxicity at 70.5 h is -9.28%. In the case of `COc1ccc(CCC(=O)N(C(C)C)C2CCOCC2)cc1`, the cytotoxicity at 70.5 h is -6.93%. In the case of `Cc1ncc(CNC(=O)NC2CCN(C3CCCC3)CC2)s1` it was -6.29%; in that of `Cc1sc(CS(C)(=O)=O)nc1-c1ccc(Cl)cc1`, 14.3%.

On to `Cc1nc(S(=O)(=O)N2CCSC3(CCCCC3)C2)cn1C`, for which the cytotoxicity at 70.5 h is -4%. In the case of `Cc1nc(S(=O)(=O)N2CCC3(CCCCC3)C2)cn1C` it was -1.45%.

Regarding `CCc1cnc(CNC(=O)NC2CCN(C3CCCC3)CC2)s1`, the cytotoxicity at 70.5 h is 14%. For `CC(C)CSCCCNC(=O)C1CCOCC1` the value was -5.98%; for `Cc1sc(CNS(N)(=O)=O)nc1-c1ccc(Cl)cc1`, -2.62%; for `O=C(c1c(O)cnc2ccccc12)N1CCCSCC1`, -1.19%.

Turning to `CC(C)CN(CC(O)c1ccc(F)cc1)C(=O)c1csnn1` (stereo not given), the cytotoxicity at 70.5 h turned out to be 14.1%.

Turning to `O=C(c1ccc(Br)cc1F)N1CCc2ccncc21`, the cytotoxicity at 70.5 h came to 3.99%.

With `CCN(C(=O)CCc1ccc2[nH]ccc2c1)C1CC(=O)NC1=O` (stereo not given), the cytotoxicity at 70.5 h was -2.25%. In the case of `Cn1cnc2cc(C(=O)NS(=O)(=O)c3ccccc3Cl)ccc21` it was -2.15%. In the case of `Cc1sc(CN)nc1-c1ccccc1` it was -3.17%; in that of `Cc1ccc(NC(=O)N2CCCC(N(C)C)C2)c(Br)c1` (stereo not given), -3.97%.

Regarding `Cc1cc(C(=O)N(CC(C)C)CC(O)c2ccc(F)cc2)[nH]n1` (stereo not given), the cytotoxicity at 70.5 h is -2.51%. In the case of `COc1ccc(C(C)NCc2cnnn2C)cc1F` (stereo not given) it was 2.17%; in that of `CC(C)CN(CC(O)c1ccc(F)cc1)C(=O)c1cc[nH]n1` (stereo not given), -3.9%. In the case of `CC(C)CSCCCNC(=O)C1CCC1` it was -2.26%; in that of `CC(C)CN(CC(O)c1ccc(F)cc1)C(=O)c1cnsn1` (stereo not given), -3.42%. Regarding `CCc1nnc2n1CCN(Cc1nc3c(F)cccc3[nH]1)C2`, the cytotoxicity at 70.5 h was 11.8%. In the case of `CC(=O)N(C)Cc1ccccc1NC(=O)N(C)CCc1cccs1` it was -3.06%. Take `COc1ccccc1CNC(C)c1cnc2cc(C)nn2c1C` (stereo not given): the cytotoxicity at 70.5 h was -1.5%. For `Cc1nonc1NC(=O)c1ccc(F)c(COCC2CC2)c1` the value was 11.9%; for `COC(C)(C)c1noc(C2(C#N)CCCC2)n1`, -1.33%; for `O=C(Nc1ccccc1OC(F)(F)F)C1CCS(=O)(=O)C1` (stereo not given), -9.01%. In the case of `c1csc(N2CCN(Cc3nnnn3C3CC3)CC2)n1` it was 0.58%; in that of `CC(NC(=O)N1CCN(c2ncccn2)CC1)c1ccc(C#N)cc1` (stereo not given), -4.87%.
